The structures appear in SMILES notation. Structures can show the parent of a compound that is named as a salt.

The term IC50 denotes the concentration that inhibits the measured activity by half.

T1 sequence (Q9H244 whole entry): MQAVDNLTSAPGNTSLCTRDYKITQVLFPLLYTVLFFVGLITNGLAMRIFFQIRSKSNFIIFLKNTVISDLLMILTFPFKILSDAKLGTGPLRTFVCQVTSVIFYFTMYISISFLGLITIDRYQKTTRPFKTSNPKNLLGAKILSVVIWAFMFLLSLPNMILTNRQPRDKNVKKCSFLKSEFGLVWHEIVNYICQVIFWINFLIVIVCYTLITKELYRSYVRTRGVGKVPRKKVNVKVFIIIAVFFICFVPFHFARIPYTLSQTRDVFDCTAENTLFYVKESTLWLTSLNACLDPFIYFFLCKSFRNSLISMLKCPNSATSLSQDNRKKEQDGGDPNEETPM

This assay has as its target T1, human P2Y12 receptor (Homo sapiens, UniProt Q9H244).
T1 construct: expressed in transfected cells; host or cells: Chinese Hamster Ovary (CHO) cells
The assay can be described thus: P2Y12 receptor binding assay. Conditions: CHO cells with recombinant expression of the human P2Y12 receptor; tritium-labeled 2-methyl-S-ADP; incubation at room temperature for 2 hours. As to the method:
P2Y12 Receptor Binding Assay
Chinese Hamster Ovary (CHO) cells with recombinant expression of the human P2Y12 receptor were cultured in 24 well cell-culture plates. Cells were washed three times with binding buffer (50 mM Tris pH 7.4, 100 mM NaCl, 1 mM EDTA, 0.5% BSA). The cells were then incubated with 0.5 ml per well binding buffer containing tritium-labeled 2-methyl-thio-adenosine 5′-diphosphate (2-methyl-S-ADP) (between 100'000 and 300'000 dpm per well) and various concentrations of test compounds. After incubation at room temperature for 2 hours, cells were washed three times with binding buffer. Then, cells were solubilized by addition of 0.5 ml solubilization buffer (SDS, NaOH, EDTA). The content of each well was then transferred into beta-counter vials and 2.0 ml of Ultima Gold Scintillation liquid was added.
On to `CCOC(=O)N1CCN(C(=O)[C@H](CCC(=O)OC(C)(C)C)NC(=O)c2cc(OCC(=O)O)nc(-c3ccccc3)n2)CC1` [Example 132, 4-{(S)-4-tert-butoxycarbonyl-2-[(6-carboxymethoxy-2-phenyl-pyrimidine-4-carbonyl)-amino]-butyryl}-piperazine-1-carboxylic acid ethyl ester], for which the IC50 came out at 8110 nM.
With `CCOC(=O)N1CCN(C(=O)[C@H](CCC(=O)O)NC(=O)c2cc(N)nc(-c3ccccc3)n2)CC1` [Example 333, 4-{(S)-2-[(6-amino-2-phenyl-pyrimidine-4-carbonyl)-amino]-4-carboxy-butyryl}-piperazine-1-carboxylic acid ethyl ester triflate salt], the IC50 was found to be 161 nM.
On to `CCOC(=O)N1CCN(C(=O)[C@H](CCC(=O)O)NC(=O)c2cc(N3CCOCC3)nc(-c3ccccc3)n2)CC1` [Example 225, 4-{(S)-4-carboxy-2-[(6-morpholin-4-yl-2-phenyl-pyrimidine-4-carbonyl)-amino]-butyryl}-piperazine-1-carboxylic acid ethyl ester formate salt], for which the IC50 came out at 100 nM.
Then `CCOC(=O)N1CCN(C(=O)[C@H](Cc2ccc(C(=O)O)cc2)NC(=O)c2cc(OC3CCCC3)nc(-c3ccccc3)n2)CC1` [Example 21, 4-{(S)-3-(4-carboxy-phenyl)-2-[(6-cyclopentyloxy-2-phenyl-pyrimidine-4-carbonyl)-amino]-propionyl}-piperazine-1-carboxylic acid ethyl ester], with 201 nM; and `CCCCc1cc(C(=O)N[C@@H](CCC(=O)O)C(=O)N2CCN(C(=O)OCC)CC2)nc(-c2ccccc2)n1` [Example 88, 4-{(S)-2-[(6-butyl-2-phenyl-pyrimidine-4-carbonyl)-amino]-4-carboxy-butyryl}-piperazine-1-carboxylic acid ethyl ester], with 98 nM; and `CCCSc1cc(C(=O)N[C@@H](CCC(=O)O)C(=O)N2CCN(C(=O)OCC)CC2)nc(-c2ccccc2)n1` [Example 247, 4-{(S)-4-carboxy-2-[(2-phenyl-6-propylsulfanyl-pyrimidine-4-carbonyl)-amino]-butyryl}-piperazine-1-carboxylic acid ethyl ester], with 142 nM.
For `CCOC(=O)N1CCN(C(=O)[C@H](CCC(=O)O)NC(=O)c2cc(CS(=O)(=O)CC)nc(-c3ccccc3)n2)CC1` [Example 375, 4-{(S)-4-carboxy-2-[(6-ethanesulfonylmethyl-2-phenyl-pyrimidine-4-carbonyl)-amino]-butyryl}-piperazine-1-carboxylic acid ethyl ester], the IC50 amounted to 108 nM.
In the case of `CCOC(=O)N1CCN(C(=O)[C@H](CCC(=O)O)NC(=O)c2cc(N(C)C)nc(-c3ccccc3)n2)CC1` [Example 79, 4-{(S)-4-carboxy-2-[(6-dimethylamino-2-phenyl-pyrimidine-4-carbonyl)-amino]-butyryl}-piperazine-1-carboxylic acid ethyl ester triflate salt], the IC50 came to 121 nM.
As for `CCOC(=O)N1CCN(C(=O)[C@H](CC(=O)O)NC(=O)c2cc(OC3CCCC3)nc(-c3ccccc3)n2)CC1` [Example 2, 4-{(S)-3-carboxy-2-[(6-cyclopentyloxy-2-phenyl-pyrimidine-4-carbonyl)-amino]-propionyl}-piperazine-1-carboxylic acid ethyl ester], the IC50 amounted to 243 nM.
In the case of `CCOC(=O)N1CCN(C(=O)[C@H](CCC(=O)O)NC(=O)c2cc(CCC(C)(C)O)nc(-c3ccccc3)n2)CC1` [Example 266, 4-((S)-4-carboxy-2-{[6-(3-hydroxy-3-methyl-butyl)-2-phenyl-pyrimidine-4-carbonyl]-amino}-butyryl)-piperazine-1-carboxylic acid ethyl ester], the IC50 came to 273 nM.
Then `CCOC(=O)N1CCN(C(=O)[C@H](CCC(=O)O)NC(=O)c2cc(/C=C/CCO)nc(-c3ccccc3)n2)CC1` [Example 421, 4-((S)-4-carboxy-2-{[6-((E)-4-hydroxy-but-1-enyl)-2-phenyl-pyrimidine-4-carbonyl]-amino}-butyryl)-piperazine-1-carboxylic acid ethyl ester], with 75 nM; and `C#Cc1cc(C(=O)N[C@@H](CCC(=O)O)C(=O)N2CCN(C(=O)OCC)CC2)nc(-c2ccccc2)n1` [Example 258, 4-{(S)-4-carboxy-2-[(6-ethynyl-2-phenyl-pyrimidine-4-carbonyl)-amino]-butyryl}-piperazine-1-carboxylic acid ethyl ester], with 253 nM.
Regarding `CCOC(=O)N1CCN(C(=O)[C@H](CCC(=O)O)NC(=O)c2cc(CCO)nc(-c3ccccc3)n2)CC1` [Example 408, 4-((S)-4-carboxy-2-{[6-(2-hydroxy-ethyl)-2-phenyl-pyrimidine-4-carbonyl]-amino}-butyryl)-piperazine-1-carboxylic acid ethyl ester], the IC50 was found to be 207 nM.
Regarding `CCOC(=O)N1CCN(C(=O)[C@H](CCC(=O)O)NC(=O)c2cc(N3CCC[C@@H]3COC)nc(-c3ccccc3)n2)CC1` [Example 324, 4-((S)-4-carboxy-2-{[6-((R)-2-methoxymethyl-pyrrolidin-1-yl)-2-phenyl-pyrimidine-4-carbonyl]-amino}-butyryl)-piperazine-1-carboxylic acid ethyl ester formate salt], the IC50 is 61 nM.
Take `CCOC(=O)N1CCN(C(=O)[C@H](CCC(=O)O)NC(=O)c2cc(SC3CCCC3)nc(-c3ccccc3)n2)CC1` [Example 249, 4-{(S)-4-carboxy-2-[(6-cyclopentylsulfanyl-2-phenyl-pyrimidine-4-carbonyl)-amino]-butyryl}-piperazine-1-carboxylic acid ethyl ester]: the IC50 turned out to be 101 nM.
Turning to `CCOC(=O)N1CCN(C(=O)[C@H](CCC(=O)O)NC(=O)c2cc(NCC(C)O)nc(-c3ccccc3)n2)CC1` (stereo partly drawn) [Example 231, 4-((S)-4-carboxy-2-{[6-(2-hydroxy-propylamino)-2-phenyl-pyrimidine-4-carbonyl]-amino}-butyryl)-piperazine-1-carboxylic acid ethyl ester], the IC50 came to 174 nM.
Then `CCCC(CCC)C(=O)Nc1cc(C(=O)N[C@@H](CCC(=O)O)C(=O)N2CCN(C(=O)OCC)CC2)nc(-c2ccccc2)n1` [Example 341, 4-((S)-4-carboxy-2-{[2-phenyl-6-(2-propyl-pentanoylamino)-pyrimidine-4-carbonyl]-amino}-butyryl)-piperazine-1-carboxylic acid ethyl ester], with 169 nM; and `CCOC(=O)N1CCN(C(=O)[C@H](CCC(=O)O)NC(=O)c2cc(NC(C)COC)nc(-c3ccccc3)n2)CC1` (stereo partly drawn) [Example 223, 4-((S)-4-carboxy-2-{[6-(2-methoxy-1-methyl-ethylamino)-2-phenyl-pyrimidine-4-carbonyl]-amino}-butyryl)-piperazine-1-carboxylic acid ethyl ester formate salt], with 97 nM.
As to `CCOC(=O)N1CCN(C(=O)[C@H](CCC(=O)O)NC(=O)c2cc(SC3CCCCC3)nc(-c3ccccc3)n2)CC1` [Example 251, 4-{(S)-4-carboxy-2-[(6-cyclohexylsulfanyl-2-phenyl-pyrimidine-4-carbonyl)-amino]-butyryl}-piperazine-1-carboxylic acid ethyl ester], the IC50 amounted to 624 nM.
In the case of `CCOCc1cc(C(=O)N[C@@H](CCC(=O)O)C(=O)N2CCN(C(=O)OCC)CC2)nc(-c2ccccc2)n1` [Example 430, 4-{(S)-4-carboxy-2-[(6-ethoxymethyl-2-phenyl-pyrimidine-4-carbonyl)-amino]-butyryl}-piperazine-1-carboxylic acid ethyl ester], the IC50 was determined as 188 nM.
With `CCOC(=O)N1CCN(C(=O)[C@H](CCC(=O)O)NC(=O)c2cc(CSC3CCCC3)nc(-c3ccccc3)n2)CC1` [Example 378, 4-{(S)-4-carboxy-2-[(6-cyclopentylsulfanylmethyl-2-phenyl-pyrimidine-4-carbonyl)-amino]-butyryl}-piperazine-1-carboxylic acid ethyl ester], the IC50 is 157 nM.
On to `CCOC(=O)N1CCN(C(=O)[C@H](CCC(=O)O)NC(=O)c2cc(NCCCN3CCOCC3)nc(-c3ccccc3)n2)CC1` [Example 66, 4-((S)-4-carboxy-2-{[6-(3-morpholin-4-yl-propylamino)-2-phenyl-pyrimidine-4-carbonyl]-amino}-butyryl)-piperazine-1-carboxylic acid ethyl ester triflate salt], for which the IC50 is 202 nM.
In the case of `CCOC(=O)N1CCN(C(=O)[C@H](CO)NC(=O)c2cc(OC3CCCC3)nc(-c3ccccc3)n2)CC1` [Example 10, 4-{(S)-2-[(6-cyclopentyloxy-2-phenyl-pyrimidine-4-carbonyl)-amino]-3-hydroxy-propionyl}-piperazine-1-carboxylic acid ethyl ester], the IC50 came out at 307 nM.
With `CCOC(=O)N1CCN(C(=O)[C@H](CCC(=O)O)NC(=O)c2cc(C(F)(F)F)nc(-c3ccccc3)n2)CC1` [Example 431, 4-{(S)-4-carboxy-2-[(2-phenyl-6-trifluoromethyl-pyrimidine-4-carbonyl)-amino]-butyryl}-piperazine-1-carboxylic acid ethyl ester], the IC50 stood at 170 nM.
With `CCOC(=O)N1CCN(C(=O)[C@H](CCCC(=O)O)NC(=O)c2cc(-c3ccccc3)nc(-c3ccccc3)n2)CC1` [Example 121, 4-{(S)-5-carboxy-2-[(2,6-diphenyl-pyrimidine-4-carbonyl)-amino]-pentanoyl}-piperazine-1-carboxylic acid ethyl ester], the IC50 was 127 nM.
